Test results: US5726012A, “Rapid, high capacity nucleic acid based assay” (E. I. du Pont de Nemours and Company, priority 1994, dated 1998)
Converted amounts (≈) assume the structure as drawn. Like-named read-outs stand apart in the source and are kept apart here.

Assays:
[1] = test system: HIV RF (infectious virus) in MT-2 cells; experiment: Yield of infectious virus by plaque assay (yield reduction assay) in MT-2 cells; assay type: cell-based, HIV-1 (strain RF); settings: for yield of infectious virus: 72 hours, MT-2 cells, HIV RF; for IC90: Human immunodeficiency virus 1, MT2, 72 h
Procedure: Test compounds were dissolved in dimethylsulfoxide to 5 mg/ml and serially diluted into RPMI 1640 medium to 10 times the desired final concentration. MT-2 cells (5×10^5 /ml) in 2.3 ml were mixed with 0.3 ml of the appropriate test compound solution and allowed to sit for 30 minutes at room temperature. HIV-1 IIIB or HIV-1 RF virus (~5×10^5 plaque forming units/ml) in 0.375 ml was added to the cell and compound mixtures and incubated for one hour at 36° C. The mixtures were centrifuged at 1000 rpm for 10 minutes and the supernatants containing unattached virus were discarded. The cell pellets were suspended in fresh RPMI 1640 containing the appropriate concentrations of test compound and placed in a 36° C., 4% CO2 incubator. Virus was allowed to replicate for three days. Cultures were centrifuged for 10 minutes at 1000 rpm and the supernatants containing cell free progeny virus removed for plaque assay. Virus suspensions were serially diluted in RPMI 1640 and 1.0 ml of each dilution added to 9 ml of MT-2 cells in RPMI 1640. Cells and virus were incubated for three hours at 36° C. to allow for efficient attachment of the virus to cells. Each virus and cell mixture was aliquoted equally to two wells of a six well poly-L-lysine coated culture plate and incubated overnight at 36° C., 4% CO2. Liquid and unattached cells were removed prior to the addition of 1.5 ml of RPMI 1640 with 0.75% (w/v) Seaplaque agarose (FMC Corp) and 5% FCS. Plates were incubated for three days and a second RPMI 1640/agarose overlay added. After an additional three days at 36° C., 4% CO2, a final overlay of PBS with 0.75% Seaplaque agarose and 1 mg/ml MTT was added. The plates were incubated overnight at 36° C. Clear plaques on a purple background were counted and the number of plaque forming units of virus calculated for each sample. The virus titers of the progeny virus produced in the presence or absence of test compounds was determined by plaque assay as described above. The antiviral activity of test compounds was determined by the percent reduction in the virus titer with respect to virus grown in the absence of any inhibitors.
(§1) MT-2 cells were infected by resuspension in medium (Dulbecco's Modified Eagles, 5% Fetal calf serum, 50 ug/ml glutamine, 50 ug/ml gentamycin) containing either 1 ×10^6 TCID 50/ ml (FIGS. 7 and 9) or 2.5×10^5 TCID 50/ml of HIV RF virus (FIGS. 8 and 9) to a final concentration of 5×10^5 cells/ml, with or without various concentrations of AZT or P9941 which is (2S,3R,4R, 5S)-N,N'-[(2-pyridylacetyl)-L-isoleucyl]-2,5-diamino-1,6-diphenyl-hexane-3,4-diol as described in WO91/18866, the disclosure of which is incorporated by reference. After incubation for four hours at 37° C., the cells were pelleted, the supernatant medium removed, and cells resuspended in an equal volume of medium ± compound without added virus. Culture was continued for a total of 72 hours at 37° C. after which time cells were pelleted, lysed by addition of 5M GED, and stored frozen at -70° C. until quantitation of HIV-1 RNA by the method described in Example 8 except that the `gag` capture/reporter probe set as described in Example 2 was employed. Supernatant medium from each sample was frozen at -120° C. until determination of yield of infectious virus by plaque assay as described in Example 11. […] Both cell associated RNA and yield of infectious virus were reduced by treatment with either AZT, a reverse transcriptase inhibitor, or P9941, an inhibitor of the HIV encoded protease. The concentration of AZT or P9941 required to inhibit HIV-1 RNA by 90% (IC90) was equivalent to the concentration of AZT or P9941 required to inhibit the yield of infectious virus by 90% (IC90). The concentrations of antiviral compound required to inhibit either HIV-1 RNA or yield of infectious virus by 90% (IC90) were very similar. For both HIV RNA and yield of infectious virus, this IC90 value was affected by the initial MOI (Table 1).

[2] = test system: HIV RF (HIV-1 RNA) in MT-2 cells; experiment: Quantitation of cell associated HIV-1 RNA in infected MT-2 cells (correlation study); assay type: cell-based, HIV-1 (strain RF); settings: for IC90 for HIV-1 RNA compared with IC90 for yield of infectious virus / cell associated RNA: 72 hours, MT-2 cells, HIV RF; for IC90: Human immunodeficiency virus 1, MT2, 72 h, 72 hrs after infection
Procedure: HIV-1 infected cell lysates from MT-2 cells grown for 24, 48 and 72 hours after infection with different initial multiplicities of infection (MOI, e.g., TCID 50 per cell) of HIV-1RF were prepared by the cell pelleting method as described in Example 5. The tissue culture infectious dose (TCID 50) for HIV-1 RF stocks were determined in MT-2 cells by a modification of the method of Johnson et al., "Infectivity Assay", Techniques in HIV Research, Aldovina et al. (1990) wherein the tissue culture medium was not changed after four days. 40 μl of the lysate and 5 μl of 1 μM biotinylated `pol` oligo were combined with GED to a final volume of 100 μl and a GED concentration of 3M and a final biotinylated `pol` oligo concentration of 50 nM. Hybridization was carried out overnight at 37° C. in sealed polypropylene tubes. Each sample was diluted three-fold with deionized water to a final GED concentration of 1M and aliquots (120 μl) transferred to streptavidin coated microtiter plate wells. The biotin oligo-RNA complex solution was incubated with the immobilized streptavidin for two hours at room temperature, after which the plates were washed six times with DuPont ELISA plate wash buffer (phosphate buffered saline (PBS)/0.05% Tween 20) with a Denley plate washer. A second hybridization was carried out by adding 120 μl of hybridization cocktail containing 4× standard saline citrate (0.15M NaCl, 0.015 sodium citrate) (SSC), 0.66% Triton X-100 and 6.66% deionized formamide, 1 mg/ml bovine serum albumin (BSA) and 5 nM `pol` AP reporter oligo to each well. After hybridization for one hour at 37° C., the plate was again washed six times in PBS/0.05% Tween 20. Alkaline phosphatase activity was detected by addition of 100 μl of substrate detection buffer, consisting of: 0.2 mM 4-methylumbelliferyl phosphate (MUBP, JBL Scientific) in 2.5M diethanolamine pH 8.9 (JBL), 10 mM MgCl2, 5 mM Zinc acetate dihydrate, and 5 mM n-hydroxyethyl-ethylene-diamine-triacetic acid. The plates were incubated at 37° C. Fluorescence was measured using a microplate fluorometer (Dynateck) exciting at 365 nm and emitting at 450 nm. […] At MOI's greater than 1 for cells cultured 72 hours after infection the level of HIV-1RNA was diminished by cell death that occurs as a result of extensive virus replication.
as §1, with “For both HIV RNA and yield of infectious virus, this IC90 value was affected by the initial MOI (Table 1).” left out

IC90 ([1]; 72 hrs after infection, MOI = 0.5, read-out: IC90, PFU)	IC90 ([1]; 72 hrs after infection, MOI = 2.0, read-out: IC90, PFU)	Structure (SMILES)	yield of infectious virus [1]	IC90 ([1]; read-out: IC90, PFU, 72 hrs after infection, MOI = 0.5)	IC90 ([1]; read-out: IC90, PFU, 72 hrs after infection, MOI = 2.0)	IC90 for HIV-1 RNA compared with IC90 for yield of infectious virus [2]	cell associated RNA [2]	IC90 ([2]; MOI = 0.5)	IC90 ([2]; MOI = 2.0)
–	–	Cc1cn([C@H]2C[C@H](N=[N+]=[N-])[C@@H](CO)O2)c(=O)[nH]c1=O [AZT]	reduced	0.09 µg/mL (≈ 0.337 µM)	0.28 µg/mL (≈ 1.05 µM)	equivalent	reduced	0.12 µg/mL (≈ 0.449 µM)	0.2 µg/mL (≈ 0.748 µM)
0.38 µg/mL (≈ 0.497 µM)	1 µg/mL (≈ 1.31 µM)	CC[C@H](C)[C@H](NC(=O)Cc1ccccn1)C(=O)N[C@@H](Cc1ccccc1)[C@@H](O)[C@H](O)[C@H](Cc1ccccc1)NC(=O)[C@@H](NC(=O)Cc1ccccn1)[C@@H](C)CC [P9941, (2S,3R,4R, 5S)-N,N'-[(2-pyridylacetyl)-L-isoleucyl]-2,5-diamino-1,6-diphenyl-hexane-3,4-diol]	reduced	–	–	equivalent	reduced	0.55 µg/mL (≈ 0.719 µM)	1.5 µg/mL (≈ 1.96 µM)
